Where a name gives a salt, the structure may show the parent alone. Numbered stars: 1 amine (or outer) side, 2 acyl side, 3 side chain; on linkers, the order of the positions; unused ones are H or OH. Square brackets hold non-standard residues; d marks the D form. Ends that are not written are not given here. Peptide text beside a SMILES is read from it. * marks the point of attachment. His(Dnp) = O=C([C@H](Cc1cn(-c2ccc([N+](=O)[O-])cc2[N+](=O)[O-])cn1)N[*:1])[*:2]; Dnp = O=[N+]([O-])c1ccc(*)c([N+](=O)[O-])c1; Boc = CC(C)(C)OC(=O)*; NHPentyl = CCCCCN*
Tests used:
bombesin receptors = molecular target: T1, bombesin receptors (Mus musculus, UniProt P21729); experiment: Binding affinity for the bombesin receptors on Swiss 3T3 fibroblasts; conditions: binding affinity on mouse Swiss 3T3 fibroblasts; for IC50: read-out: ID₅₀
T1 construct: has been determined on Swiss 3T3 fibroblasts; endogenous in cells; host or cells: mouse Swiss 3T3 fibroblasts
T1 sequence (P21729 whole entry): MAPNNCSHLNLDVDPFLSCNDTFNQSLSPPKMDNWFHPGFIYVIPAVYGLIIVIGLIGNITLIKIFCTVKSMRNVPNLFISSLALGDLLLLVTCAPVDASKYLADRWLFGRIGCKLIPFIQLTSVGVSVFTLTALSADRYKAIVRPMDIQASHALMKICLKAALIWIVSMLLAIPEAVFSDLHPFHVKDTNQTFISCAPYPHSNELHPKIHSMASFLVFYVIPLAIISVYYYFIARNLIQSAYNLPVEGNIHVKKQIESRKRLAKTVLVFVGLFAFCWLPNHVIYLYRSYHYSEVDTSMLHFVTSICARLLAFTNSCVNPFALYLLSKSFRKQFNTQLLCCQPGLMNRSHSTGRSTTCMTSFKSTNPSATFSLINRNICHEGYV
From the text: The binding affinity of the compounds of the present invention for the bombesin receptors has been determined on Swiss 3T3 fibroblasts (I. Zachary and E. Rozengurt (1985) Proc. Natl. Acad. Sci. USA, 82, 7616-7620) (Table 1).

[1] = system: rat grooming behaviour stimulated by bombesin; experiment: Grooming behaviour in the rat after i.c.v. administration (inhibition of bombesin-stimulated grooming); type: in vivo
From the text: The antagonistic activity has been evaluated both in vitro and in vivo; in vitro, as inhibition of the bombesin-induced DNA synthesis in Swiss 3T3 cells (A.N. Corps et al. (1985) Biochem. J., 231, 781-785) (Table 2) and rat urinary bladder contraction (M. Broccardo et al. (1975) Br. J.Pharmac., 55, 221-227) (Table 3); in vivo, by i.c.v. administration, as inhibition of the rat grooming behaviour stimulated by bombesin (A. Cowan et al. (1985) Life Sciences, 37, 135-145) (Table 4).

| Compound | IC50 (bombesin receptors) [µM] | ID₅₀ (bombesin receptors) | other results |
| --- | --- | --- | --- |
| CSCC[C@H](NC(=O)[C@H](CC(C)C)NC(=O)[C@H](Cc1c[nH]cn1)NC(=O)CNC(=O)[C@@H](NC(=O)[C@H](C)NC(=O)[C@H](Cc1c[nH]c2ccccc12)NC(=O)[C@H](CCC(N)=O)NC(=O)[C@@H](N)CC(N)=O)C(C)C)C(N)=O [BBS(6-14)nonapeptide, reference compound] | 0.0094 ± 0.0031 | – | – |
| CSCC[C@H](NC(=O)[C@H](CC(C)C)NC(=O)[C@@H](Cc1ccccc1)NC(=O)CNC(=O)[C@@H](NC(=O)[C@H](C)NC(=O)[C@H](Cc1c[nH]c2ccccc12)NC(=O)[C@H](CCC(N)=O)NC(=O)[C@@H](NC(=O)OC(C)(C)C)[C@@H](C)O)C(C)C)C(N)=O [XVI, Boc-Thr-Gln-Trp-Ala-Val-Gly-phe-Leu-Met-NH₂] (Boc-TQWAVG[dF]LM-NH2) | 19.5 | – | – |
| CSCC[C@H](NC(=O)[C@H](CC(C)C)NC(=O)[C@@H](Cc1ccccc1)NC(=O)CNC(=O)[C@@H](NC(=O)[C@H](C)NC(=O)[C@H](Cc1c[nH]c2ccccc12)NC(=O)[C@H](CCC(N)=O)NC(=O)[C@@H](N)[C@@H](C)O)C(C)C)C(N)=O [XVII, HCl.H-Thr-Gln-Trp-Ala-Val-Gly-phe-Leu-Met-NH₂] (H-TQWAVG[dF]LM-NH2) | 32.5 | – | – |
| CSCC[C@H](NC(=O)[C@H](CC(C)C)NC(=O)CNC(=O)[C@@H](NC(=O)[C@H](C)NC(=O)[C@H](Cc1c[nH]c2ccccc12)NC(=O)[C@H](CCC(N)=O)NC(=O)[C@@H](NC(=O)OC(C)(C)C)[C@@H](C)O)C(C)C)C(N)=O [XVIII, Boc-Thr-Gln-Trp-Ala-Val-Gly-Leu-Met-NH₂] (Boc-TQWAVGLM-NH2) | 1 | – | – |
| CSCC[C@H](NC(=O)[C@@H](CC(C)C)NC(=O)[C@H](Cc1c[nH]cn1)NC(=O)CNC(=O)[C@@H](NC(=O)[C@H](C)NC(=O)[C@H](Cc1c[nH]c2ccccc12)NC(=O)[C@H](CCC(N)=O)NC(=O)[C@@H](N)[C@@H](C)O)C(C)C)C(N)=O [XXI, H-Thr-Gln-Trp-Ala-Val-Gly-His-leu-Met-NH₂.CF₃COOH] | 10 | – | Grooming score ([1]; BBS 0.01 µg/rat + XXI 10 µg/rat in combination): 35; Grooming score ([1]; peptide XXI 10 µg/rat alone): 15 |
| CCCCCNC(=O)[C@H](CC(C)C)NC(=O)[C@H](Cc1c[nH]cn1)NC(=O)CNC(=O)[C@@H](NC(=O)[C@H](C)NC(=O)[C@H](Cc1c[nH]c2ccccc12)NC(=O)[C@H](CCC(N)=O)NC(=O)[C@@H](N)[C@@H](C)O)C(C)C [XXVIII, H-Thr-Gln-Trp-Ala-Val-Gly-His-Leu-NH(CH₂)₄CH₃. 2CF₃COOH] (H-TQWAVGHL-NHPentyl) | 0.076 ± 0.03 | – | – |
| CC(C)C[C@H](NC(=O)[C@H](Cc1c[nH]cn1)NC(=O)CNC(=O)[C@@H](NC(=O)[C@H](C)NC(=O)[C@H](Cc1c[nH]c2ccccc12)NC(=O)[C@H](CCC(N)=O)NC(=O)[C@@H](NC(=O)OC(C)(C)C)[C@@H](C)O)C(C)C)C(N)=O [XXXIII, Boc-Thr-Gln-Trp-Ala-Val-Gly-His-Leu-NH₂] (Boc-TQWAVGHL-NH2) | 0.556 ± 0.128 | – | – |
| CSCC[C@H](NC(=O)[C@H](CC(C)C)NC(=O)[C@@H](C)NC(=O)CNC(=O)[C@@H](NC(=O)[C@H](C)NC(=O)[C@H](Cc1c[nH]c2ccccc12)NC(=O)[C@H](CCC(N)=O)NC(=O)[C@@H](NC(=O)OC(C)(C)C)[C@@H](C)O)C(C)C)C(N)=O [XXXIV, Boc-Thr-Gln-Trp-Ala-Val-Gly-ala-Leu-Met-NH₂] (Boc-TQWAVG[dA]LM-NH2) | 18.2 | – | – |
| Boc-Thr-Gln-Trp-Ala-Val-Gly-His(Dnp)-Leu-NH₂ (Boc-TQWAVG[His(Dnp)]L-NH2; SMILES CC(C)C[C@H](NC(=O)[C@H](Cc1cn(-c2ccc([N+](=O)[O-])cc2[N+](=O)[O-])cn1)NC(=O)CNC(=O)[C@@H](NC(=O)[C@H](C)NC(=O)[C@H](Cc1c[nH]c2ccccc12)NC(=O)[C@H](CCC(N)=O)NC(=O)[C@@H](NC(=O)OC(C)(C)C)[C@@H](C)O)C(C)C)C(N)=O) [XXXII] | – | 770 ± 13 nM | – |
| Glp-Gln-Arg-Leu-Gly-Asn-Gln-Trp-Ala-Val-Gly-His-Leu-Met-NH₂ [BBS, reference compound] | – | 12.6 ± 3.8 nM | Grooming score ([1]; BBS 0.01 µg/rat alone): 55 |
| H-Thr-Gln-Trp-Ala-Val-Gly-His(Dnp)-Leu-Met-NH₂ . HCl (TQWAVGH; His(Dnp)-Leu-Met-NH2 extension; HCl salt; printed: Thr-Gln-Trp-Ala-Val-Gly-His) [XXII] | – | 5,800 ± 750 nM | – |
| H-Thr-Gln-Trp-Ala-Val-Gly-His(Dnp)-Leu-NH(CH₂)₄ CH₃.CF₃COOH (H-TQWAVG[His(Dnp)]L-{NH(CH2)4CH3}; also: TFA salt) [XXVII] | – | 335 ± 101 nM | – |
| H-Thr-Gln-Trp-Ala-Val-Gly-His(Dnp)-leu-Met-NH₂ . HCl (H-TQWAVGH(Dnp); not fully specified (C-terminus); also: HCl salt) [XX] | – | 63,000 nM | – |
| KTQWAVGALM-NH2 [XXV, H-Lys-Thr-Gln-Trp-Ala-Val-Gly-Ala-Leu-Met-NH₂ . 2HCl] | 0.97 ± 0.004 | – | – |
| RTQWAVGALM-NH2 [XXVI, H-Arg-Thr-Gln-Trp-Ala-Val-Gly-Ala-Leu-Met-NH₂. 2CF₃COOH] | 0.2 ± 0.06 | – | – |
| TQWAVGFLM-NH2 [XXIII, H-Thr-Gln-Trp-Ala-Val-Gly-Phe-Leu-Met-NH₂.CF₃COOH] | 4.7 | – | – |
| TQWAVGLM-NH2 [XIX, HCl. H-Thr-Gln-Trp-Ala-Val-Gly-Leu-Met-NH₂] | 3.4 | – | – |
| TQWAVGSLM-NH2 [XXIV, H-Thr-Gln-Trp-Ala-Val-Gly-Ser-Leu-Met-NH₂.CF₃COOH] | 0.59 ± 0.13 | – | – |
| p-GRP: porcine gastrin releasing peptide (APVSVGGGTVLAKMYPRGNHWAVGHLM; ends and bridges not checked; UniProt P63153 24-50, looked up) [reference compound] | – | 17.6 ± 4.0 nM | – |
